Experimental data as given in patent US6406706B1, “Use of α- and β-santalols major constituents of sandal wood oil, in the treatment of warts, skin blemishes and other viral-induced tumors” (Haque, Inc., priority 1996, dated 2002).

System: warts
Conditions: human, in vivo
Description: In accordance with the method according to this invention, regular use of the α- and β-santalols is meant to mean application of the α- and β-santalols at least once a day to the body surface containing the viral-induced tumors (i.e., warts and Molluscom contagiosum tumors). A further embodiment of the method of this invention comprises washing the affected area of the body with the soap, rinsing the area, placing a small amount of the α- and β-santalols on the tumor to be treated and then gently rubbing to facilitate penetration. […] The subject was advised to rub 1 drop of the santalol mixture after washing their hand with regular soap and water. The subject was to use a loofah sponge to soften the surface of the warts prior to the application of the santalol mixture. […] A subject had three warts on their right and left index fingers for over five years. […] The subject was advised to wash the warts with soap and water using a loofah sponge to soften the surface of the warts, prior to applying one drop of the santalol mixture on the warts and rubbing gently. The treatment was to occur once a day. […] The subject was asked to wash the warts on their face with soap and water and then apply the santalols with a cotton swab. […] After the resolution of the facial warts, the subject's non-facial warts were treated with the santalols.

α- and β-santalol [santalol mixture]
local side effects (redness, irritation or pain): no evidence of any local side effects | local skin irritation (redness, pain): no evidence of any local skin irritation | skin irritation, burning or redness at sites of application: no evidence | tolerability of treatment: well tolerated
